Experimental data taken from patent US10472341B2, “Bicyclic tetrahydrothiazepine derivatives useful for the treatment of neoplastic and/or infectious diseases” (APEIRON BIOLOGICS AG, priority 2015, dated 2019).

What was measured:
[1] = tested on: Monocytes; assay: FC receptor stimulation on myeloid cells (monocytes, precoated anti-GD2-Abs): TNF-alpha, IL-1, IL-6; type: cell-based, human
Experimental: Isolated Monocytes were plated in Xvivo medium at 1.5*10^5 cells per in 96 well culture plates and stimulated by precoated anti-GD2-Abs (10 μg/ml, Apeiron) where indicated. Cytokine secretion was determined by enzyme-linked immunosorbent assay (ELISA). The results of the above experiment titled “Enhancement of reactivity of immune cells to stimulation by tumor-cell bound therapeutic antibody” indicate that compounds can enhance FcR stimulation of immune cells. However, in a set-up as used therein, it is difficult to subtract the effects of tumor-cell contact from the effects of Fc-receptor stimulation. Therefore, the effect of FcR-stimulation by the same anti-GD2-Ab was tested in a tumor-cell free assay set-up, where the anti-GD2 antibodies were coated to cell culture plates, thereby mimicking cell-bound antibodies.

[2] = tested on: NK cells & K562 leukemia cells; assay: NK cells alone or in co-culture with K562 leukemia cells: IFN-gamma, TNF-alpha, granzyme, CD25+CD69+; type: cell-based, human
Experimental: Isolated PBMCs, NK cells or CD8 positive cells were plated in Xvivo medium at 1.5*10^5 cells per in 96 well culture plates in the presence of 0.3*10^4 tumor cells where indicated. Cytokine secretion was determined by ELISA, immune cell activation (using Beckman-Coulter Abs CD25-PC5, CD69-PC7), cell viability and numbers by flow cytometry (Beckman-Coulter FC500 or Gallios) using 7-AAD exclusion as criterion for living cells. One of the physiological functions of NK cells in anti-tumor immunity is the recognition and destruction of tumor cells that have a low expression of MHC-molecules, thus avoiding recognition by CD8 T cells. Downregulation of MHC molecules is often actively mediated by an infecting virus or occurs during development of malignant neoplasms. The […] leukemia cell line expresses only very low amounts of MHC-molecules and thus is often used as a model system to investigate anti-tumor NK cell reactivity. NK cells were isolated from PBMCs and were incubated with and without compounds, either alone or in co-culture with K562 leukemia cells.

CC(C)NC(=O)c1cc2c(cc1F)S(=O)(=O)C[C@H](N)C(=O)N2Cc1ccc(Cl)cc1.Cl [Example 77, (3R)-3-amino-5-[(4-chlorophenyl)methyl]-8-fluoro-1,1,4-trioxo-N-(propan-2-yl)-2,3,4,5-tetrahydro-1λ^6,5-benzothiazepine-7-carboxamide hydrochloride]
IL-1 ([1]; FcR stimulated, 0.01 μM): 1.14 ng/mL
IL-6 ([1]; FcR stimulated, 0.01 μM): 1.61 ng/mL
TNF-alpha ([1]; FcR stimulated, 0.01 μM): 1.62 ng/mL
IL-1 ([1]; FcR stimulated, 0.03 μM): 1.52 ng/mL
IL-6 ([1]; FcR stimulated, 0.03 μM): 2.33 ng/mL
TNF-alpha ([1]; FcR stimulated, 0.03 μM): 2.49 ng/mL
IL-1 ([1]; FcR stimulated, 0.1 μM): 1.09 ng/mL
IL-6 ([1]; FcR stimulated, 0.1 μM): 2.10 ng/mL
TNF-alpha ([1]; FcR stimulated, 0.1 μM): 2.57 ng/mL
IL-1 ([1]; FcR stimulated, 0.3 μM): 4.16 ng/mL
IL-6 ([1]; FcR stimulated, 0.3 μM): 5.65 ng/mL
TNF-alpha ([1]; FcR stimulated, 0.3 μM): 6.57 ng/mL
IL-1 ([1]; FcR stimulated, 1 μM): 5.88 ng/mL
IL-6 ([1]; FcR stimulated, 1 μM): 7.46 ng/mL
TNF-alpha ([1]; FcR stimulated, 1 μM): 11.02 ng/mL
IL-1 ([1]; FcR stimulated, 3 μM): 5.50 ng/mL
IL-6 ([1]; FcR stimulated, 3 μM): 5.93 ng/mL
TNF-alpha ([1]; FcR stimulated, 3 μM): 14.11 ng/mL
IL-1 ([1]; FcR stimulated, 10 μM): 7.44 ng/mL
IL-6 ([1]; FcR stimulated, 10 μM): 5.86 ng/mL
TNF-alpha ([1]; FcR stimulated, 10 μM): 16.44 ng/mL
IL-1 ([1]; FcR stimulated, 30 μM): 7.77 ng/mL
IL-6 ([1]; FcR stimulated, 30 μM): 6.20 ng/mL
TNF-alpha ([1]; FcR stimulated, 30 μM): 14.85 ng/mL
activation of myeloid cells by FcR stimulation (TNF-alpha, IL-1, IL-6 secretion) ([1]; monocytes, plate-coated anti-GD2 antibodies): directly enhanced the activation of myeloid cells by FcR stimulation, which resulted in increased secretion of TNF-alpha, IL-1 and IL-6
IL-6 ([1]; unstimulated, 0.1 μM): 0.14 ng/mL
IL-6 ([1]; unstimulated, 0.3 μM): 0.13 ng/mL
IL-6 ([1]; unstimulated, 1 μM): 0.14 ng/mL
IL-6 ([1]; unstimulated, 3 μM): 0.13 ng/mL
IL-6 ([1]; unstimulated, 10 μM): 0.13 ng/mL
IL-6 ([1]; unstimulated, 30 μM): 0.13 ng/mL
TNF-alpha ([1]; unstimulated, 30 μM): 0.02 ng/mL
IFN-gamma [ng/ml] Avg ([2]; 0.03 μM, NK cells & K562): 2.20 ng/mL
TNF-alpha [ng/ml] avg ([2]; 0.03 μM, NK cells & K562): 0.08 ng/mL
IFN-gamma [ng/ml] Avg ([2]; 0.03 μM, NK cells only): below
TNF-alpha [ng/ml] avg ([2]; 0.03 μM, NK cells only): below
IFN-gamma [ng/ml] Avg ([2]; 0.1 μM, NK cells & K562): 2.38 ng/mL
TNF-alpha [ng/ml] avg ([2]; 0.1 μM, NK cells & K562): 0.11 ng/mL
IFN-gamma [ng/ml] Avg ([2]; 0.1 μM, NK cells only): below
TNF-alpha [ng/ml] avg ([2]; 0.1 μM, NK cells only): below
IFN-gamma [ng/ml] Avg ([2]; 0.3 μM, NK cells & K562): 6.06 ng/mL
TNF-alpha [ng/ml] avg ([2]; 0.3 μM, NK cells & K562): 0.19 ng/mL
IFN-gamma [ng/ml] Avg ([2]; 0.3 μM, NK cells only): below
TNF-alpha [ng/ml] avg ([2]; 0.3 μM, NK cells only): below
IFN-gamma [ng/ml] Avg ([2]; 1 μM, NK cells & K562): 11.75 ng/mL
TNF-alpha [ng/ml] avg ([2]; 1 μM, NK cells & K562): 0.34 ng/mL
IFN-gamma [ng/ml] Avg ([2]; 1 μM, NK cells only): below
TNF-alpha [ng/ml] avg ([2]; 1 μM, NK cells only): below
IFN-gamma [ng/ml] Avg ([2]; 3 μM, NK cells & K562): 12.11 ng/mL
TNF-alpha [ng/ml] avg ([2]; 3 μM, NK cells & K562): 0.47 ng/mL
IFN-gamma [ng/ml] Avg ([2]; 3 μM, NK cells only): below
TNF-alpha [ng/ml] avg ([2]; 3 μM, NK cells only): below
IFN-gamma [ng/ml] Avg ([2]; 10 μM, NK cells & K562): 17.15 ng/mL
TNF-alpha [ng/ml] avg ([2]; 10 μM, NK cells & K562): 0.57 ng/mL
IFN-gamma [ng/ml] Avg ([2]; 10 μM, NK cells only): below
TNF-alpha [ng/ml] avg ([2]; 10 μM, NK cells only): below
IFN-gamma [ng/ml] Avg ([2]; 30 μM, NK cells & K562): 19.12 ng/mL
TNF-alpha [ng/ml] avg ([2]; 30 μM, NK cells & K562): 0.70 ng/mL
IFN-gamma [ng/ml] Avg ([2]; 30 μM, NK cells only): below
TNF-alpha [ng/ml] avg ([2]; 30 μM, NK cells only): below
CD25+CD69+ ([2]; NK cells & K562, 0.03 μM): 1.77 % gated
Granzyme ([2]; NK cells & K562, 0.03 μM): 0.48 ng/mL
CD25+CD69+ ([2]; NK cells & K562, 0.1 μM): 2.29 % gated
Granzyme ([2]; NK cells & K562, 0.1 μM): 0.52 ng/mL
CD25+CD69+ ([2]; NK cells & K562, 0.3 μM): 4.44 % gated
Granzyme ([2]; NK cells & K562, 0.3 μM): 0.68 ng/mL
CD25+CD69+ ([2]; NK cells & K562, 1 μM): 10.74 % gated
Granzyme ([2]; NK cells & K562, 1 μM): 0.90 ng/mL
CD25+CD69+ ([2]; NK cells & K562, 3 μM): 13.55 % gated
Granzyme ([2]; NK cells & K562, 3 μM): 1.15 ng/mL
CD25+CD69+ ([2]; NK cells & K562, 10 μM): 17.81 % gated
Granzyme ([2]; NK cells & K562, 10 μM): 1.41 ng/mL
CD25+CD69+ ([2]; NK cells & K562, 30 μM): 25.06 % gated
Granzyme ([2]; NK cells & K562, 30 μM): 2.12 ng/mL
production of IFN-gamma and TNF-alpha ([2]; NK cells in co-culture with K562 leukemia cells): enhanced production of both cytokines specifically upon tumor cell contact
enhancement of IFN-gamma and TNF-alpha production ([2]; NK cells in the absence of tumor cells): such effect was not detected in the absence of tumor cells
CD25+CD69+ ([2]; NK cells only, 0.03 μM): 0.01 % gated
Granzyme ([2]; NK cells only, 0.03 μM): 0.08 ng/mL
CD25+CD69+ ([2]; NK cells only, 0.1 μM): 0.02 % gated
Granzyme ([2]; NK cells only, 0.1 μM): 0.06 ng/mL
CD25+CD69+ ([2]; NK cells only, 0.3 μM): 0.05 % gated
Granzyme ([2]; NK cells only, 0.3 μM): 0.08 ng/mL
CD25+CD69+ ([2]; NK cells only, 1 μM): 0.15 % gated
Granzyme ([2]; NK cells only, 1 μM): 0.05 ng/mL
CD25+CD69+ ([2]; NK cells only, 3 μM): 0.24 % gated
Granzyme ([2]; NK cells only, 3 μM): 0.05 ng/mL
CD25+CD69+ ([2]; NK cells only, 10 μM): 0.46 % gated
Granzyme ([2]; NK cells only, 10 μM): 0.10 ng/mL
CD25+CD69+ ([2]; NK cells only, 30 μM): 0.95 % gated
Granzyme ([2]; NK cells only, 30 μM): 0.16 ng/mL
